tested on: CXCL10 production; experiment: CXCL10 production inhibition test; format: cell-based; settings: Endothelial cell; test compound 0.1 μmol/L; human umbilical vein-derived endothelial cells; TNFα 10 ng/mL; supernatant 72 hours after stimulation; ELISA; read-out: Rate of inhibition of CXCL10 production
Method: (CXCL10 Production Inhibition Test)
0.5×10^4 or 1×10^4 human umbilical vein-derived endothelial cells were suspended in 100 μL of an EGM-2 BulletKit medium (without GA) or a Medium-200 medium supplemented with an EGM-2 SingleQuots kit (without GA), inoculated to a 96-well plate and cultured overnight. 100 μL of a solution of each test compound diluted with the same medium as that used in the inoculation was added to the cultured cells (final concentration of the test compound: 0.1 μmol/L). 1 hour thereafter, TNFα was added thereto at a final concentration of 10 ng/mL. 72 hours after the stimulation, the supernatant was recovered, and the amount of CXCL10 produced in the culture supernatant was determined using an ELISA kit (Peprotech, 900-109).
The rate of inhibition was calculated according to the following expression: Rate of inhibition (%)=100−(Amount of CXCL10 produced in the presence of the test compound/Amount of CXCL10 produced in the absence of the test compound)×100

| SMILES | inhibition at 0.1 µM [%] |
| --- | --- |
| CCn1c(=O)cc(C2CC2)c2cc(N(C)C(=O)c3ccccc3)ccc21 [Example 2, N-(4-cyclopropyl-1-ethyl-2-oxo-1,2-dihydroquinolin-6-yl)-N-methylbenzamide] | ≥ 50 |
| CCn1c(=O)cc(N2CCOCC2)c2cc(-n3c(-c4ccccc4)c[nH]c3=O)ccc21 [Example 3, 1-ethyl-4-(morpholin-4-yl)-6-(2-oxo-5-phenyl-2,3-dihydro-1H-imidazol-1-yl)quinolin-2(1H)-one] | ≥ 50 |
| CCN1CCC(c2cc(=O)n(CC)c3ccc(C(=O)N(C)c4ccccc4)cc23)CC1 [Example 8, 1-ethyl-4-(1-ethylpiperidin-4-yl)-N-methyl-2-oxo-N-phenyl-1,2-dihydroquinoline-6-carboxamide] | ≥ 50 |
| CCn1c(=O)cc(C2CCN(C)CC2)c2cc(C(=O)N3CCCc4ccccc43)ccc21 [Example 11, 6-(3,4-dihydroquinolin-1(2H)-ylcarbonyl)-1-ethyl-4-(1-methylpiperidin-4-yl)quinolin-2(1H)-one] | ≥ 50 |
| CCn1c(=O)cc(C2CCN(C)CC2)c2cc(C(=O)N(C)c3ccc(C)cc3)ccc21 [Example 14, 1-ethyl-N-methyl-N-(4-methylphenyl)-4-(1-methylpiperidin-4-yl)-2-oxo-1,2-dihydroquinoline-6-carboxamide] | ≥ 50 |
| CCn1c(=O)cc(C(C)C)c2cc(N(C)C(=O)c3ccc(Cl)cc3)ccc21 [Example 16, 4-chloro-N-(1-ethyl-2-oxo-4-(propan-2-yl)-1,2-dihydroquinolin-6-yl)-N-methylbenzamide] | ≥ 50 |
| CCn1c(=O)cc(C2CCN(C)CC2)c2cc(C(=O)N(C)c3ccc4c(c3)CCC4)ccc21 [Example 17, N-(2,3-dihydro-1H-inden-5-yl)-1-ethyl-N-methyl-4-(1-methylpiperidin-4-yl)-2-oxo-1,2-dihydroquinoline-6-carboxamide] | ≥ 50 |
| CCn1c(=O)cc(N2CCOCC2)c2cc(-n3c(-c4ccc(Cl)cc4)c[nH]c3=O)ccc21 [Example 245, 6-(5-(4-chlorophenyl)-2-oxo-2,3-dihydro-1H-imidazol-1-yl)-1-ethyl-4-(morpholin-4-yl)quinolin-2(1H)-one] | ≥ 50 |
| CCn1c(=O)cc(N2CCOCC2)c2cc(-n3c(-c4ccc(Cl)cc4)cn(C)c3=O)ccc21 [Example 246, 6-(5-(4-chlorophenyl)-3-methyl-2-oxo-2,3-dihydro-1H-imidazol-1-yl)-1-ethyl-4-(morpholin-4-yl)quinolin-2(1H)-one] | ≥ 50 |
| CCn1c(=O)cc(N2CCOCC2)c2cc(-n3c(-c4ccccc4)cn(C(C)C)c3=O)ccc21 [Example 247, 1-ethyl-4-(morpholin-4-yl)-6-(2-oxo-5-phenyl-3-(propan-2-yl)-2,3-dihydro-1H-imidazol-1-yl)quinolin-2(1H)-one] | ≥ 50 |
| CCn1c(=O)cc(C2CC2)c2cc(-n3c(=O)[nH]c(=O)n3-c3ccccc3)ccc21 [Example 248, 1-(4-cyclopropyl-1-ethyl-2-oxo-1,2-dihydroquinolin-6-yl)-2-phenyl-1,2,4-triazolidine-3,5-dione] | ≥ 50 |
| CCn1c(=O)cc(N2CCOCC2)c2cc(N(C)C(=O)c3ccc(Cl)cc3)ccc21 [Example 250, 4-chloro-N-(1-ethyl-4-(morpholin-4-yl)-2-oxo-1,2-dihydroquinolin-6-yl)-N-methylbenzamide] | ≥ 50 |
| CCn1c(=O)cc(C2CC2)c2cc(-c3nc(C)nn3-c3ccccc3)ccc21 [Example 252] | ≥ 50 |
| CCn1c(=O)cc(N2CCOCC2)c2cc(N3C(=O)CC[C@H]3c3ccccc3)ccc21 [Example 253, 1-ethyl-4-(morpholin-4-yl)-6-((5S)-2-oxo-5-phenylpyrrolidin-1-yl)quinolin-2(1H)-one] | ≥ 50 |
| CCn1c(=O)cc(C2CC2)c2cc(N3C(=O)CC[C@H]3c3ccccc3)ccc21 [Example 254, 4-cyclopropyl-1-ethyl-6-((5S)-2-oxo-5-phenylpyrrolidin-1-yl)quinolin-2(1H)-one] | ≥ 50 |
| CCn1c(=O)cc(N2CCOCC2)c2cc(-n3ccnc3-c3ccccc3)ccc21 [Example 255] | ≥ 50 |
| CCn1c(=O)cc(N2CCOCC2)c2cc(-n3cc(C)nc3-c3ccccc3)ccc21 [Example 256, 1-ethyl-6-(4-methyl-2-phenyl-1H-imidazol-1-yl)-4-(morpholin-4-yl)quinolin-2(1H)-one] | ≥ 50 |

| SMILES | inhibition at 0.1 µM [%] |
| --- | --- |
| CCn1c(=O)cc(N2CCOCC2)c2cc(-c3nccn3-c3ccccc3)ccc21 [Example 257, 1-ethyl-4-(morpholin-4-yl)-6-(1-phenyl-1H-imidazol-2-yl)quinolin-2(1H)-one] | ≥ 50 |
| CCn1c(=O)cc(N2CCOCC2)c2cc(-c3ccccc3-c3ccccc3)ccc21 [Example 258, 6-(biphenyl-2-yl)-1-ethyl-4-(morpholin-4-yl)quinolin-2(1H)-one] | ≥ 50 |
| CCn1c(=O)cc(N2CCOCC2)c2cc(-n3c(-c4ccccc4)cn(CCN4CCCCC4)c3=O)ccc21 [Example 259, 1-ethyl-4-(morpholin-4-yl)-6-(2-oxo-5-phenyl-3-(2-(piperidin-1-yl)ethyl)-2,3-dihydro-1H-imidazol-1-yl)quinolin-2(1H)-one] | ≥ 50 |
| CCn1c(=O)cc(N2CCOCC2)c2cc(-n3c(-c4ccccc4)cn(CCN4CCOCC4)c3=O)ccc21 [Example 260, 1-ethyl-4-(morpholin-4-yl)-6-(3-(2-(morpholin-4-yl)ethyl)-2-oxo-5-phenyl-2,3-dihydro-1H-imidazol-1-yl)quinolin-2(1H)-one] | ≥ 50 |
| CCn1c(=O)cc(N2CCOCC2)c2cc(-n3c(-c4ccccc4)cn(CCN(C)C)c3=O)ccc21 [Example 261, 6-(3-(2-(dimethylamino)ethyl)-2-oxo-5-phenyl-2,3-dihydro-1H-imidazol-1-yl)-1-ethyl-4-(morpholin-4-yl)quinolin-2(1H)-one] | ≥ 50 |
| CCn1c(=O)cc(N2CCOCC2)c2cc(-n3c(-c4ccccc4)cn(CCO)c3=O)ccc21 [Example 262, 1-ethyl-6-(3-(2-hydroxyethyl)-2-oxo-5-phenyl-2,3-dihydro-1H-imidazol-1-yl)-4-(morpholin-4-yl) quinolin-2(1H)-one] | ≥ 50 |
| CCn1c(=O)cc(N2CCOCC2)c2cc(-n3c(-c4ccccc4)cn(CCOC)c3=O)ccc21 [Example 263, 1-ethyl-6-(3-(2-methoxyethyl)-2-oxo-5-phenyl-2,3-dihydro-1H-imidazol-1-yl)-4-(morpholin-4-yl) quinolin-2(1H)-one] | ≥ 50 |
| CCCCn1cc(-c2ccccc2)n(-c2ccc3c(c2)c(N2CCOCC2)cc(=O)n3CC)c1=O [Example 264, 6-(3-butyl-2-oxo-5-pheynyl-2,3-dihydro-1H-imidazazol-1-yl)-1-ethyl-4-(morpholin-4-yl)quinolin-2(1H)-one] | ≥ 50 |
| CCCn1cc(-c2ccccc2)n(-c2ccc3c(c2)c(N2CCOCC2)cc(=O)n3CC)c1=O [Example 265, 1-ethyl-4-(morpholin-4-yl)-6-(2-oxo-5-phenyl-3-propyl-2,3-dihydro-1H-imidazol-1-yl)quinolin-2(1H)-one] | ≥ 50 |
| CCn1cc(-c2ccccc2)n(-c2ccc3c(c2)c(N2CCOCC2)cc(=O)n3CC)c1=O [Example 266, 1-ethyl-6-(3-ethyl-2-oxo-5-phenyl-2,3-dihydro-1H-imidazol-1-yl)-4-(morpholin-4-yl)quinolin-2(1H)-one] | ≥ 50 |
| CCn1c(=O)cc(C2CC2)c2cc(-n3c(-c4ccc(C(F)(F)F)cc4)cn(C)c3=O)ccc21 [Example 267, 4-cyclopropyl-1-ethyl-6-(3-methyl-2-oxo-5-(4-(trifluoromethyl)phenyl)-2,3-dihydro-1H-imidazol-1-yl)quinolin-2(1H)-one] | ≥ 50 |
| CCn1c(=O)cc(C2CC2)c2cc(-n3c(-c4ccc(C(F)(F)F)cc4)c[nH]c3=O)ccc21 [Example 268, 4-cyclopropyl-1-ethyl-6-(2-oxo-5-(4-(trifluoromethyl)phenyl)-2,3-dihydro-1H-imidazol-1-yl)quinolin-2(1H)-one] | ≥ 50 |
| CCn1c(=O)cc(C2CC2)c2cc(-n3c(-c4ccc(Cl)cc4)cn(C)c3=O)ccc21 [Example 269, 6-(5-(4-chlorophenyl)-3-methyl-2-oxo-2,3-dihydro-1H-imidazol-1-yl)-4-cyclopropyl-1-ethylquinolin-2(1H)-one] | ≥ 50 |
| CCn1c(=O)cc(N2CCOCC2)c2cc(-n3c(-c4ccc(C(F)(F)F)cc4)cn(C)c3=O)ccc21 [Example 270, 1-ethyl-6-(3-methyl-2-oxo-5-(4-(trifluoromethyl)phenyl)-2,3-dihydro-1H-imidazol-1-yl)-4-(morpholin-4-yl)quinolin-2(1H)-one] | ≥ 50 |
| CCn1c(=O)cc(C2CC2)c2cc(-n3c(-c4ccc(Cl)cc4)c[nH]c3=O)ccc21 [Example 271, 6-(5-(4-chlorophenyl)-2-oxo-2,3-dihydro-1H-imidazol-1-yl)-cyclopropyl-1-ethylquinolin-2(1H)-one] | ≥ 50 |
| CCn1c(=O)cc(N2CCOCC2)c2cc(-n3c(-c4ccc(C(F)(F)F)cc4)c[nH]c3=O)ccc21 [Example 272, 1-ethyl-6-(2-oxo-5-(4-(trifluoromethyl)phenyl)-2,3-dihydro-1H-imidazol-1-yl)-4-(morpholin-4-yl)quinolin-2(1H)-one] | ≥ 50 |

— US10696637B2, “Nitrogen-containing heterocyclic compound” (FUJIFILM Corporation, priority 2015, dated 2020)
